Measured values published in US20240148821A1, “PHARMACEUTICAL USE OF CYCLIC PEPTIDE COMPOUND” (CHUGAI SEIYAKU KABUSHIKI KAISHA, priority 2021, published 2024).
Numbered stars: 1 amine (or outer) side, 2 acyl side, 3 side chain; on linkers, the order of the positions; unused ones are H or OH. Bridge positions count the residues as written; N and C are the ends. Square brackets hold non-standard residues; d marks the D form. Peptide text beside a SMILES is read from it. * marks the point of attachment. hPhe(3-Cl-4-CF3) = N[C@@H](CCc1ccc(C(F)(F)F)c(Cl)c1)C(=O)O; hPhe(3-F,4-CF3) = N[C@@H](CCc1ccc(C(F)(F)F)c(F)c1)C(=O)O; hPhe(4-CF3) = N[C@@H](CCc1ccc(C(F)(F)F)cc1)C(=O)O; NMePhe(4-Cl) = CN[C@@H](Cc1ccc(Cl)cc1)C(=O)O; NMePhe(4-Me) = CN[C@@H](Cc1ccc(C)cc1)C(=O)O; NMePhe(2-Cl) = CN[C@@H](Cc1ccccc1Cl)C(=O)O; hPhe(4-Cl) = N[C@@H](CCc1ccc(Cl)cc1)C(=O)O; X72 = O=C([C@@H]1Cc2ccccc2N1[*:1])[*:2]; Pro(4,4-F2) = O=C(O)[C@@H]1CC(F)(F)CN1; NMeAla(cPr) = CN[C@@H](CC1CC1)C(=O)O; NMeCha = CN[C@@H](CC1CCCCC1)C(=O)O; NMeChg = CN[C@H](C(=O)O)C1CCCCC1; NMeI = CC[C@H](C)[C@H](NC)C(=O)O; NMeD = CN[C@@H](CC(=O)O)C(=O)O; NMeL = CN[C@@H](CC(C)C)C(=O)O; NMeNva = CCC[C@H](NC)C(=O)O; NMeV = CN[C@H](C(=O)O)C(C)C; d(β3hA) = C[C@@H](N)CC(=O)O; Pip = O=C(O)[C@@H]1CCCCN1; Morpholide = C1CN(*)CCO1; Piperidide = C1CCN(*)CC1; Pyrrolidide = C1CCN(*)C1; Ac5c = NC1(C(=O)O)CCCC1; Aze = O=C(O)[C@@H]1CCN1; Sar = CNCC(=O)O

System: Human pancreatic cancer cell line AsPC-1 (G12D mutation Kras)
Assay: AsPC-1 cell growth inhibition (AsPC-1 CGI)
Assay type: cell-based
Settings: read-out: AsPC-1 cell growth inhibition, 50% growth inhibitory concentration (IC50 value); 96 hours, CellTiter-Glo, values classified in ranges
Protocol: Test compounds were serially dilated with dimethyl sulfoxide, and 200 nL was then dispensed to a U-bottom 96-well plate using Labcyte Echo. […] The cell suspension was dispensed to a. plate containing a test compound at 100 μL per well and incubated at 37° C. in a 5% carbon dioxide gas incubator. 96 hours later, 80 μL of CellTiter-Glo (Promega) was added to each well and fluorescence was measured.

| Structure (SMILES) | IC50 [nM] |
| --- | --- |
| CC[C@H](C)[C@@H]1NC(=O)[C@H](CC2CC2)N(C)C(=O)C[C@@H](C)NC(=O)[C@H](C(C)C)N(C)C(=O)C2(CCCC2)NC(=O)[C@@H]2CCCN2C(=O)[C@H](CCc2ccc(C(F)(F)F)c(Cl)c2)NC(=O)CN(C)C(=O)[C@H](CC2CCCCC2)N(C)C(=O)CN(C)C(=O)CN(C)C1=O [Compound 248] (cyclo([Ac5c][NMeV][d(β3hA)][NMeAla(cPr)]I[Sar][Sar][NMeCha][Sar][hPhe(3-Cl-4-CF3)]P)) | > 500 |
| CC[C@H](C)[C@@H]1NC(=O)[C@H](CC(C)C)N(C)C(=O)C[C@@H](C(=O)N2CCCC2)NC(=O)[C@H](CC(C)C)N(C)C(=O)C2(CCCC2)NC(=O)[C@@H]2CCCN2C(=O)[C@H](CCc2ccc(C(F)(F)F)c(F)c2)NC(=O)CN(C)C(=O)[C@H](CC2CCCCC2)N(C)C(=O)CN(C)C(=O)CN(C)C1=O [Compound 1489] ([NMeL]I[Sar][Sar][NMeCha][Sar][hPhe(3-F,4-CF3)]P[Ac5c][NMeL]D-Pyrrolidide; lactam N-11) | > 500 |
| CCC[C@H]1C(=O)N[C@@H]([C@@H](C)CC)C(=O)N(C)CC(=O)N(C)CC(=O)N(C)[C@@H](Cc2ccc(C)cc2)C(=O)N(C)CC(=O)N[C@@H](CCc2ccc(C(F)(F)F)c(Cl)c2)C(=O)N2CC(F)(F)C[C@H]2C(=O)NC2(CCCC2)C(=O)N(C)[C@@H](C2CCCCC2)C(=O)N(C)[C@H](C(=O)N2CCCC2)CC(=O)N1C [Compound 1296] ([NMeNva]I[Sar][Sar][NMePhe(4-Me)][Sar][hPhe(3-Cl-4-CF3)][Pro(4,4-F2)][Ac5c][NMeChg][NMeD]-Pyrrolidide; lactam N-11) | ≤ 20 |
| CC[C@H](C)[C@@H]1NC(=O)[C@@H]2CCCCN2C(=O)C[C@@H](C(=O)N2CCCCC2)N(C)C(=O)[C@H](C(C)C)N(C)C(=O)C2(CCCC2)NC(=O)[C@@H]2CCCN2C(=O)[C@H](CCc2ccc(Cl)cc2)NC(=O)CN(C)C(=O)[C@H](CC2CCCCC2)N(C)C(=O)CN(C)C(=O)CN(C)C1=O [Compound 841] ([Pip]I[Sar][Sar][NMeCha][Sar][hPhe(4-Cl)]P[Ac5c][NMeV][NMeD]-Piperidide; lactam N-11) | > 500 |
| CCC[C@H]1C(=O)N(C)CC(=O)N[C@@H](CCc2ccc(C(F)(F)F)c(Cl)c2)C(=O)N2CCC[C@H]2C(=O)NC2(CCCC2)C(=O)N(C)[C@@H](C2CCCCC2)C(=O)N(C)[C@H](C(=O)N2CCCCC2)CC(=O)N(C)[C@@H](CC(C)C)C(=O)N[C@@H]([C@@H](C)CC)C(=O)N(C)CC(=O)N(C)CC(=O)N1C [Compound 187] ([NMeL]I[Sar][Sar][NMeNva][Sar][hPhe(3-Cl-4-CF3)]P[Ac5c][NMeChg][NMeD]-Piperidide; lactam N-11) | > 500 |
| CC[C@H](C)[C@@H]1NC(=O)[C@H](CC(C)C)N(C)C(=O)C[C@@H](C(=O)N2CCCCC2)N(C)C(=O)[C@H](C2CCCCC2)N(C)C(=O)C2(CCCC2)NC(=O)[C@@H]2Cc3ccccc3N2C(=O)[C@H](CCc2ccc(C(F)(F)F)c(Cl)c2)NC(=O)CN(C)C(=O)[C@H](CC2CCCCC2)N(C)C(=O)[C@@H]2CCN2C(=O)CN(C)C1=O [Compound 725] ([NMeL]I[Sar][Aze][NMeCha][Sar][hPhe(3-Cl-4-CF3)][X72][Ac5c][NMeChg][NMeD]-Piperidide; lactam N-11) | > 500 |
| CC[C@H](C)[C@@H]1NC(=O)[C@H](CC(C)C)N(C)C(=O)C[C@@H](C)NC(=O)[C@H](C(C)C)N(C)C(=O)C2(CCCC2)NC(=O)[C@@H]2CCCN2C(=O)[C@H](CCc2ccc(C(F)(F)F)c(Cl)c2)NC(=O)CN(C)C(=O)[C@H](Cc2ccccc2Cl)N(C)C(=O)CN(C)C(=O)CN(C)C1=O [Compound 1591] (cyclo([Ac5c][NMeV][d(β3hA)][NMeL]I[Sar][Sar][NMePhe(2-Cl)][Sar][hPhe(3-Cl-4-CF3)]P)) | > 500 |
| CC(C)C[C@H]1C(=O)N[C@@H](C)C(=O)N(C)CC(=O)N(C)CC(=O)N(C)[C@@H](CC2CCCCC2)C(=O)N(C)CC(=O)N[C@@H](CCc2ccc(C(F)(F)F)c(Cl)c2)C(=O)N2CCC[C@H]2C(=O)NC2(CCCC2)C(=O)N(C)[C@@H](C2CCCCC2)C(=O)N(C)[C@H](C(=O)N2CCCCC2)CC(=O)N1C [Compound 1802] ([NMeL]A[Sar][Sar][NMeCha][Sar][hPhe(3-Cl-4-CF3)]P[Ac5c][NMeChg][NMeD]-Piperidide; lactam N-11) | > 500 |
| CC[C@H](C)[C@@H]1NC(=O)[C@H](C(C)C)N(C)C(=O)C[C@@H](C)NC(=O)[C@H](CC(C)C)N(C)C(=O)C2(CCCC2)NC(=O)[C@H](CC(C)C)N(C)C(=O)[C@H](CCc2ccc(C(F)(F)F)cc2)NC(=O)CN(C)C(=O)[C@H](Cc2ccc(Cl)cc2)N(C)C(=O)[C@@H]2CCN2C(=O)CN(C)C1=O [Compound 645] (cyclo([Ac5c][NMeL][d(β3hA)][NMeV]I[Sar][Aze][NMePhe(4-Cl)][Sar][hPhe(4-CF3)][NMeL])) | > 500 |
| CC[C@H](C)[C@@H]1NC(=O)[C@H](CC(C)C)N(C)C(=O)C[C@@H](C(=O)N2CCOCC2)N(C)C(=O)[C@H]([C@@H](C)CC)N(C)C(=O)C2(CCCC2)NC(=O)[C@@H]2CCCN2C(=O)[C@H](CCc2ccc(C(F)(F)F)c(Cl)c2)NC(=O)CN(C)C(=O)[C@H](CC2CCCCC2)N(C)C(=O)CN(C)C(=O)CN(C)C1=O [Compound 1979] ([NMeL]I[Sar][Sar][NMeCha][Sar][hPhe(3-Cl-4-CF3)]P[Ac5c][NMeI][NMeD]-Morpholide; lactam N-11) | ≤ 20 |
